According to patent publication US11453690B2, “Receptor inhibitor, pharmaceutical composition comprising same, and use thereof” (BEIJING TIDE PHARMACEUTICAL CO., LTD., priority 2018, dated 2022):

Target: AT2 Receptor (AT2R) (Homo sapiens (Human), UniProt P50052)
Experiment: Measurement of inhibitory activity on AT2 receptor (Tag-lite HTRF, Tb-labeled AT2R cells, angiotensin receptor red agonist)
Type: binding
Conditions: 1 h room temperature
Experimental: Measurement of Inhibitory Activity on AT1 Receptor ([…])/AT2 Receptor (AT2R)
Through the following steps, the inhibitory activity of the compound on AT1R/AT2R (IC50 value) was determined:
1) An appropriate amount of 1×TLB (Tag-lite Buffer) was prepared and well mixed for use.
2) The compound was diluted by 10 times with ddH2O or DMSO. The compound was then dilute to 4 times of the working concentration with 1×TLB and mixed well for use.
3) 8600 nM Tag-lite angiotensin receptor red agonist was diluted to 12 nM (4×Kd) with 1×TLB.
4) 5 ml 1×TLB was taken into a 15 ml centrifuge tube.
5) After thawing 1 tube of Tb-labeled AT1R/AT2R cells in a 37° C. water bath, the cells were quickly transferred to the 1×TLB in step 4), mixed gently, and centrifuged at 1200 g for 5 minutes at room temperature.
6) The supernatant was aspirated gently, and the cells were resuspended and mixed in 2.7 ml 1×TLB, and then placed at room temperature until use.
7) 10 μl cells were added to all test wells, and 5 μl 4× working solution of the compound from step 2) was added to the corresponding test wells. 5 μl 4× Tag-lite angiotensin receptor red agonist well diluted in step 3) was added to all test wells.
8) After leaving the reaction plate at room temperature for 1 h, data were measured and analyzed using Envision HTRF Reader, and the half inhibitory concentration (IC50) of the compound on AT1R/AT2R was calculated with the GraphPad Prism four-parameter equation.

Chain of AT2 Receptor (AT2R) (P50052 whole entry): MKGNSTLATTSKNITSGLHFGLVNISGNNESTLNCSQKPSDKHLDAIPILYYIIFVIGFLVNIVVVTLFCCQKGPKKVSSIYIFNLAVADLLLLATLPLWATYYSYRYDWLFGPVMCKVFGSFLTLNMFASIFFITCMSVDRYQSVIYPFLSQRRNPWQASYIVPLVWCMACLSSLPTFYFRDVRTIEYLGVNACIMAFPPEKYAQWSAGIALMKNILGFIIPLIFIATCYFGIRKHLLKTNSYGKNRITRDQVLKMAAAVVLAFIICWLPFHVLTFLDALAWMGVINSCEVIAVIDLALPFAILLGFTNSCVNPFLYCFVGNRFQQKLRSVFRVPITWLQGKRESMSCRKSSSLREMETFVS

In order of rising IC50:
1. O=C(O)[C@@H]1[C@H]2CC[C@@H](CN1C(=O)N(c1ccccc1)c1ccccc1)N2C(=O)N(Cc1ccccc1)C1CC1 [Compound C153, (1R,2S,5S)-8-(benzyl (cyclopropyl)carbamoyl)-3-(diphenylcarbamoyl)-3,8-diazabicyclo [3.2.1]octane-2-carboxylic acid]  2.78 nM
2. C=Cc1ccc(CN(C)C(=O)N2[C@H]3CC[C@@H]2[C@@H](C(=O)O)N(C(=O)N(c2ccccc2)c2ccccc2)C3)cc1 [Compound C170, (1R,2S,5S)-3-(diphenylcarbamoyl)-8-(methyl(4-vinylbenzyl)carbamoyl)-3,8-diazabicyclo[3.2.1] octane-2-carboxylic acid]  3.87 nM
3. CCc1ccc(CN(C)C(=O)N2[C@H]3CC[C@@H]2[C@@H](C(=O)O)N(C(=O)N(c2ccccc2)c2ccccc2)C3)cc1 [Compound C164, (1R,2S,5S)-3-(diphenylcarbamoyl)-8-((4-ethylbenzyl) (methyl)carbamoyl)-3,8-diazabicyclo[3.2.1] octane-2-carboxylic acid]  4.35 nM
4. O=C(O)[C@@H]1[C@H]2CC[C@@H](CN1C(=O)N(c1ccccc1)c1ccccc1)N2C(=O)N1CCC[C@@H]1c1ccccc1 [Compound C140, (1R,2S,5S)-3-(diphenylcarbamoyl)-8-((R)-2-phenylpyrrolidine-1-carbonyl)-3,8-diazabicyclo [3.2.1]octane-2-carboxylic acid]  5.49 nM
5. CN(Cc1ccc(C(F)(F)F)cc1)C(=O)N1[C@H]2CC[C@@H]1[C@@H](C(=O)O)N(C(=O)N(c1ccccc1)c1ccccc1)C2 [Compound C169]  7.26 nM
6. O=C(O)[C@@H]1[C@H]2CC[C@@H](CN1C(=O)N(c1ccccc1)c1ccccc1)N2C(=O)N1CCC[C@@H]1c1cc(F)ccc1F [Compound C141, (1R,2S,5S)-8-((R)-2-(2,5-difluorophenyl)pyrrolidine-1-carbonyl)-3-(diphenylcarbamoyl)-3,8-diazabicyclo [3.2.1]octane-2-carboxylic acid]  7.99 nM
7. Cc1ccc([C@H]2CCCN2C(=O)N2[C@H]3CC[C@@H]2[C@@H](C(=O)O)N(C(=O)N(c2ccccc2)c2ccccc2)C3)cc1 [Compound C143, (1R,2S,5S)-3-(diphenylcarbamoyl)-8-((R)-2-(p-tolyl)pyrrolidine-1-carbonyl)-3,8-diazabicyclo [3.2.1]octane-2-carboxylic acid]  9.97 nM
8. CCN(Cc1ccccc1F)C(=O)N1[C@H]2CC[C@@H]1[C@@H](C(=O)O)N(C(=O)N(c1ccccc1)c1ccccc1)C2 [Compound C156, (1R,2S,5S)-3-(diphenylcarbamoyl)-8-(ethyl(2-fluorobenzyl)carbamoyl)-3,8-diazabicyclo [3.2.1]octane-2-carboxylic acid]  10.1 nM
9. O=C(O)[C@@H]1[C@H]2CC[C@@H](CN1C(=O)N(c1ccccc1)c1ccccc1)N2C(=O)N1CCCC1c1ccccc1 (stereo partly drawn) [Compound C138, (1R,2S,5S)-3-(diphenylcarbamoyl)-8-(2-phenylpyrrolidine-1-carbonyl)-3,8-diazabicyclo[3.2.1] octane-2-carboxylic acid]  11.7 nM
10. O=C(O)[C@@H]1[C@H]2CC[C@@H](CN1C(=O)N(c1ccccc1)c1ccccc1)N2C(=O)N1CCCCC1c1ccccc1 (stereo partly drawn) [Compound C146, (1R,2S,5S)-3-(diphenylcarbamoyl)-8-(2-phenylpiperidine-1-carbonyl)-3,8-diazabicyclo [3.2.1]octane-2-carboxylic acid]  14 nM
11. CN(Cc1ccc(Br)cc1)C(=O)N1[C@H]2CC[C@@H]1[C@@H](C(=O)O)N(C(=O)N(c1ccccc1)c1ccccc1)C2 [Compound C165, (1R,2S,5S)-8-((4-bromobenzyl) (methyl)carbamoyl)-3-(diphenylcarbamoyl)-3,8-diazabicyclo [3.2.1]octane-2-carboxylic acid]  14 nM
12. O=C(O)[C@@H]1[C@H]2CC[C@@H](CN1C(=O)N(c1ccccc1)c1ccccc1)N2C(=O)N(Cc1ccccc1)CC1CC1 [Compound C154, (1R,2S,5S)-8-(benzyl (cyclopropylmethyl)carbamoyl)-3-(diphenylcarbamoyl)-3,8-diazabicyclo [3.2.1]octane-2-carboxylic acid]  19.8 nM
13. CN(Cc1ccc(F)cc1)C(=O)N1[C@H]2CC[C@@H]1[C@@H](C(=O)O)N(C(=O)N(c1ccccc1)c1ccccc1)C2 [Compound C161, (1R,2S,5S)-3-(diphenylcarbamoyl)-8-((4-fluorobenzyl) (methyl)carbamoyl)-3,8-thazabicyclo [3.2.1]octane-2-carboxylic acid]  30.5 nM
14. CC(C)N(Cc1ccccc1)C(=O)N1[C@H]2CC[C@@H]1[C@@H](C(=O)O)N(C(=O)N(c1ccccc1)c1ccccc1)C2 [Compound C152, (1R,2S,5S)-8-(benzyl (isopropyl)carbamoyl)-3-(diphenylcarbamoyl)-3,8-diazabicyclo [3.2.1]octane-2-carboxylic acid]  47.4 nM
15. Cc1ccccc1CN(C)C(=O)N1[C@H]2CC[C@@H]1[C@@H](C(=O)O)N(C(=O)N(c1ccccc1)c1ccccc1)C2 [Compound C163, (1R,2S,5S)-3-(diphenylcarbamoyl)-8-(methyl (2-methylbenzyl)carbamoyl)-3,8-diazabicyclo [3.2.1]octane-2-carboxylic acid]  65.6 nM
16. CN(Cc1cccc(Cl)c1)C(=O)N1[C@H]2CC[C@@H]1[C@@H](C(=O)O)N(C(=O)N(c1ccccc1)c1ccccc1)C2 [Compound C151, (1R,2S,5S)-8-((3-chlorobenzyl) (methyl)carbamoyl)-3-(diphenylcarbamoyl)-3,8-diazabicyclo [3.2.1]octane-2-carboxylic acid]  74.3 nM
17. O=C(O)[C@@H]1[C@H]2CC[C@@H](CN1C(=O)N(c1ccccc1)c1ccccc1)N2C(=O)N(c1ccc(F)cc1)c1ccc(F)cc1 [Compound C145, (1R,2S,5S)-8-(bis(4-fluorophenyl)carbamoyl)-3-(diphenylcarbamoyl)-3,8-diazabicyclo [3.2.1]octane-2-carboxylic acid]  110 nM
18. CN(CC1CCCCC1)C(=O)N1[C@H]2CC[C@@H]1[C@@H](C(=O)O)N(C(=O)N(c1ccccc1)c1ccccc1)C2 [Compound C147, (1R,2S,5S)-8-((cyclohexylmethyl) (methyl)carbamoyl)-3-(diphenylcarbamoyl)-3,8-diazabicyclo [3.2.1]octane-2-carboxylic acid]  111 nM
19. O=C(O)[C@@H]1[C@H]2CC[C@@H](CN1C(=O)N(c1ccccc1)c1ccccc1)N2C(=O)N(Cc1ccccc1)Cc1ccccc1 [Compound C133, (1R,2S,5S)-8-(dibenzylcarbamoyl)-3-(diphenylcarbamoyl)-3,8-diazabicyclo[3.2.1] octane-2-carboxylic acid]  243 nM
20. O=C(O)[C@@H]1[C@H]2CC[C@@H](CN1C(=O)N(c1ccccc1)c1ccccc1)N2C(=O)N(Cc1ccccc1)c1ccccc1 [Compound C134, (1R,2S,5S)-8-(benzyl(phenyl)carbamoyl)-3-(diphenylcarbamoyl)-3,8-diazabicyclo [3.2.1]octane-2-carboxylic acid]  322 nM
21. O=C(O)[C@@H]1[C@H]2CC[C@@H](CN1C(=O)N(c1ccccc1)c1ccccc1)N2C(=O)N1CCC[C@H]1c1cc(F)ccc1F [Compound C142, (1R,2S,5S)-8-((S)-2-(2,5-difluorophenyl)pyrrolidine-1-carbonyl)-3-(diphenylcarbamoyl)-3,8-diazabicyclo [3.2.1]octane-2-carboxylic acid]  654 nM
